Data as given in patent US20090317419A1, “Tetramers” (Duke University, priority 2008, published 2009).
Ends that are not written are not given here. * marks the point of attachment. Biotin = O=C1N[C@H]2[C@H](CS[C@H]2CCCCC(=O)*)N1

What was measured:
[1] = test system: antibody coated beads (P3X63/Ag8, A32, 7B9, F39F, 7B2, 13H11, 2F5); conditions: flow cytometry, all antibody coated beads tested
Description: (§1) Antibody-coated beads. Carboxyl-polystyrene beads (3.0-3.4 μm) (Spherotech, Inc., Lake Forest, Ill.) were resuspended in 0.01 M sodium acetate buffer (pH 5.0) and reacted (20° C.×1 hr) with 1-ethyl-3-(3-dimethylaminopropyl) carbodiimide hydrochloride (EDC) (Sigma-Aldrich, Co., St. Louis, Mo.) at a ratio of 3.1 mg beads to 1 mg EDC. Beads were washed with sodium acetate buffer, resuspended in a minimal volume before adding purified mAb in the same buffer (ratio of 16 mg beads to 1 mg mAb), incubated (20° C.×2 hrs), then washed with sodium acetate buffer. Beads were resuspended at 5% in PBS containing 1% bovine serum albumin and 0.02% sodium azide.
(§2) Use of antibody-coated beads and cell lines for tetramer quality control. Tetramer stocks were diluted to twice the desired final concentration in PBS containing 1% BSA. An equal volume of beads or cells at 5×10^5 up to 2×10^6 per sample were mixed with tetramer and incubated (4° C.×30 min). Beads or cells were washed with PBS+1% BSA before being fixed in 2% methanol-free formaldehyde (Polysciences, Inc, Warrington, Pa.) in PBS. Samples were stored at 4° C. prior to being analyzed by flow cytometry (BD LSR II, Becton Dickinson, Mountain View, Calif.). Data were analyzed using FlowJo (Tree Star, Ashland, Oreg.). For tetramer titration 40-80 ng tetramer per 10^6 cells/beads was serially diluted over 8-12 points. Optimal concentrations determined by this method were used for subsequent experiments. For cold competition experiments the incubation step was performed by staining with 10-fold excess unlabeled tetramer (4° C.×30 min) prior to the addition of APC-labeled tetramer. For cell dilution experiments, a mixture of mAb cell lines was made and then 1:10 serial dilutions of cells prepared. For cross competition experiments, mixtures of cells were prepared and then stained singly with anti-IgG reagents or tetramer, or the cells were doubly stained with both reagents either sequentially or concurrently.

[2] = test system: mAb cell lines P3X63/Ag8, F39F, 7B2, 13H11; conditions: flow cytometry, all Ig+ cell lines tested
Description: as §2

[3] = test system: total naïve splenic BALB/c B cells; conditions: APC-labeled tetramer
Description: (§3) Cell isolation, serum collection, and PBMC isolations. Heparinized or non-heparanized blood was collected sub-mandibularly 10 days after immunizations. For preparation of peripheral blood lymphocytes for B cell tetramer analysis, PBMC were isolated from blood collected in heparinized tubes (0.2 ml) using Lympholyte M (Cederlane). For Luminex and ELISA assays, sera was isolated from non-heparanized blood and stored at −20° C. until use. Spleen, bone marrow (BM), and peritoneal cavity (PerC) cells were also collected. For most immunizations, tissues were harvested after the 4th boost, except for kinetic studies, in which tissues from mice were harvested after 1, 3 or 7 days after a single immunization. For BM preparations, femora and tibiae were removed, aspirated with tissue medium using 23 gauge needles, filtered with 70 μm cell strainers (BD labware), and RBC-depleted using Tris-buffered ammonium chloride lysis. For splenocyte preparation, spleens were harvested and dissociated into single-cell suspensions either by passage through 70 μm cell strainers in tissue medium or by using frosted glass slides, and blood erythrocytes were depleted with ammonium chloride lysis. For isolation of peritoneal cells, peritoneal cavities of sacrificed mice were lavaged by injection with 10 ml of PBS, followed by gentle massage of the abdomen, and withdrawal of the peritoneal exudates. BM, splenic, and peritoneal single cell suspensions were centrifuged at 1500 rpm for 5 min and resuspended in 5, 10, and 1 ml of tissue media, respectively, for cell counts and immunofluorescence staining. Cell counts were performed in duplicate on a Coulter ZI Dual Threshold Cell Counter (Coulter).
(§4) Antibodies and flow cytometry. Immunofluorescent staining of single cell suspensions (≧2×10^6) was conducted using pre-mixed combinations of fluorochrome-labeled antibodies and APC-conjugated B cell tetramers at empirically-determined optimal concentrations. All antibodies were from BD unless otherwise stated. […] Other reagents included biotinylated antibodies against dump channel markers: Thy1 (Ox7; Abcam), F4/80 (BM8; Abcam), CD11c (clone HL3), Gr-1 (clone RB6-8C5), TER-119, and NK-1.1 (clone PK136), secondary staining SA-Texas Red conjugate; v-amine live/dead violet dye (Molecular Probes), and Fc block (anti-CD16/32; clone 2.4G2).
(§5) Staining was conducted at 4° C. in several sequential steps in FACS staining buffer (1×PBS with 2% FCS, 0.1% NaN3), washing twice between steps. First, cells were incubated with v-amine live/dead dye for 15 min. Next, cells were stained with APC-labeled tetramers for 30 min. Where applicable, this was preceded by addition of cold tetramer at 10 fold molar excess for 1 h. Finally, cells were stained with Fc block for 30 min, followed by incubation with combinations of primary antibody cocktails for 30 min, and secondary staining with SA-Texas Red for 30 min.
(§6) Data were acquired using an LSRII flow cytometer and Cell Quest software (BD Immunocytometry systems). A minimum of 250000 events were acquired per sample. FACS Analysis was performed using FlowJo software (Tree Star). For analysis, single cells were positively gated based on their forward scatter height vs. forward scatter area and side scatter height vs. side scatter area profiles, lymphocytes were then positively gated based on their forward and side scatter profile (live lymphocyte gate), residual dead cells were excluded with negative gating on v-amine live/dead dye, and all irrelevant non-B cells were excluded with negative gating on dump markers Thy1, F4/80, CD11c, Gr-1, TER-119, and NK-1.1.

[4] = test system: mAb F39F (anti-gp120 V3); conditions: SPR, mAb F39F captured, 25° C., PBS pH 7.4
Description: Surface Plasmon Resonance (SPR) measurements of tetramer binding to peptide epitopes. Tetramer binding assays were carried out on a BIAcore 3000 (BIAcore/GE Healthcare, Piscataway, N.J.) instrument using mAbs against each specific B cell epitope.
Each mAb (about 1000 RU) was first captured on anti-human Fc mAb (Pierce, Rockford, Ill.) immobilized on a CM5 sensor chip. Approximately 3000 RU of anti-human Fc mAb was covalently coupled to each flow cell of the sensor chip as described before (Alam et al, Journal of Immunology 178:4424-4435 (2007)). Each B cell tetramer was injected over its epitope specific mAb or a control surface immobilized with irrelevant mAb. For each tetramer binding curve, non-specific binding signals obtained from the control surface were subtracted. The binding assay was monitored at 25° C. and using PBS, pH 7.4, as the running buffer. The BIAevaluation 3.0 software (BIAcore/GE Healthcare, Piscataway, N.J.) was used for SPR binding data analyses.

[5] = test system: V3 loop mAbs 7B9 and F39F on beads; conditions: flow cytometry
Description: as §1, §2

[6] = test system: F39F cells; conditions: flow cytometry
Description: as §2

[7] = test system: mixture of F39F cells and P3X63/Ag8 cells; conditions: 6% F39F cells, 94% P3X63/Ag8 cells; sequential or simultaneous staining
Description: as §2

[8] = test system: total naïve splenic C57BL/6 B cells; conditions: C57BL/6, APC-labeled tetramer
Description: as §3, §4, §5, §6

[9] = test system: mAb 7B9 (anti-gp120 V3 62.19); conditions: SPR, mAb 7B9 captured
[10] = gp41 HR2 peptide immunization, serum anti-2F5 epitope Ab ELISA, BALB/c; type: in vivo, BALB/c mice; conditions: peptide in Emulsigen + oCpG, i.p., ELISA 10 days after each immunization
Description: (§7) Peptide immunogen formulation, dose, route of immunization, and immunization schedule. The peptide immunogen used was a gp41 heptad repeat-2 (HR2) DP 1 78Q16L peptide ([…]), synthesized and purified from Primm, and verified to be >95% purified as determined by mass spectrometry. Lyophilized peptide immunogens stored at 4° C. (Primm Biotechnology) were reconstituted by dissolving in DMSO at 8 mg/ml and bringing up to 1 mg/ml in saline. Adjuvanting was done by dissolving mouse oCpG, (5′-[…]-3′; Midland Certified Reagent Company) in saline at 1 mg/ml and first mixing with Oil/water Emulsigen (MVP laboratories) in saline, then with peptide, such as to create a final mixture of 50 μg/ml oCpG, 125 μg/ml peptide, 10% Emulsigen (for i.p. immunizations) and 200 μg/ml oCpG, 500 μg/ml peptide, 10% Emulsigen (for i.m. immunizations). Immunization primes and boosts were all done at a single site intraperitoneally using a volume of 200 μl of the above formulation, such that mice in all instances were injected with 25 μg peptide and 10 μg oCpG. Mice were primed for 10 days and then boosted four times, every 14 days.
(§8) Cell isolation, serum collection, and PBMC isolations.
(§9) ELISA assays. […] Optical density was read at 405 nm with a BioRad 680 microplate reader. […]

[11] = gp41 HR2 peptide immunization, serum anti-2F5 epitope Ab ELISA, C57BL/6; type: in vivo, C57BL/6 mice; conditions: C57BL/6, peptide in Emulsigen + oCpG, i.p., ELISA 10 days after each immunization
Description: as §7, §8, §9

Substance | binding to any antibody on beads [1] | binding to mAb cell lines [2] | binding to total naïve splenic B cells [3] | koff [4] [s^−1 × 10^−3] | kon [4] [M^−1s^−1 × 10^3] | binding to antibody-coated beads [5] | binding to mAb cell line [6] | effect of PE labeled anti-IgG heavy chain reagent on tetramer binding [7] | binding to total naïve splenic B cells [8] | koff [9] [s^−1 × 10^−3] | kon [9] [M^−1s^−1 × 10^3] | anti-2F5 serum Ab response [10] | anti-2F5 serum Ab titers [11]
Biotin-GGGGGDWEYSVWLSN [dsDNA mimic tetramer] | did not bind | no cell line bound | no significant binding above background |  |  |  |  |  |  |  |  |  | 
Biotin-GGGTRPNNNTRKSIHIGPGRAFYATE [62.19 V3 tetramer] |  |  | minimal binding | 0.60 | 60.5 | bound to both V3 loop mAbs 7B9 and F39F | bound | does not inhibit | minimal binding | 0.19 | 35.6 |  | 
enfuvirtide |  |  |  |  |  |  |  |  |  |  |  | robust anti-2F5 serum Ab responses | no appreciable anti-2F5 serum Ab titers
